Patent US7056863B1, “Synergistic herbicidal compositions herbicides from the group of the hydroxyphenylpyruvate dioxygenase inhibitors” (Aventis CropScience GmbH, priority 1999, dated 2006)

Key:
BRAPL = experiment: Outdoor plot trial, post-emergence treatment, visual evaluation of herbicidal activity; format: in vivo; settings: Example B.VII, 300 g of ai/ha, outdoors
Description: (§1) Outdoors, crop plants were grown on plots of a size of from 5 to 10 m^2 on various soils and under various climatic conditions, and the natural presence of harmful plants and/or their seeds in the soil was utilized for the experiments. The treatment with the compositions according to the invention or the herbicides A) and B) applied individually was carried out after emergence of the harmful and the crop plants, in general at the 2- to 4-leaf stage. The active compounds or active compound combinations, formulated as WG, WP or EC, was carried out by the post-emergence method. After 2 to 8 weeks, visual evaluation was carried out in comparison with an untreated comparative group. […] In addition, the herbicidal activities of the compositions according to the invention exceed the expected values according to Colby.
(§2) If the observed activity values of the mixtures already exceed the formal sum of the values for the trials with individual applications, they also exceed the expected value according to Colby which is calculated using the following formula (cf. S. R. Colby; in Weeds 15 (1967) pp. 20 to 22):
(§3) The figures denote: • A, B=Activity of Components A and B in percent, at a dosage of a and b gram of ai/ha, respectively. • E=Expected value in % at a dosage of a+b gram of ai/ha.

ZEAMX (Zea mays) = experiment: Outdoor plot trial, post-emergence treatment, damage to crop plant; format: in vivo; settings: Example B.VII, 300 g of ai/ha
Description: as §1

[1] = tested on: CHEAL (Chenopodium album); experiment: Outdoor plot trial, post-emergence treatment, visual evaluation of herbicidal activity; format: in vivo; settings: outdoors
Description: as §1, §2, §3

[2] = tested on: PHBPU (Pharbitis purpurea); experiment: as above; format: in vivo; settings: outdoors
Description: as §1, §2, §3

[3] = tested on: POROL (Portulaca oleracea); experiment: as above; format: in vivo; settings: outdoors
Description: as §1, §2, §3

TRZDU (Triticum davam) = experiment: Outdoor plot trial, post-emergence treatment, damage to crop plant; settings: in vivo
Description: as §1

KCHSC (Kochia scoparia) = experiment: Outdoor plot trial, post-emergence treatment, visual evaluation of herbicidal activity; format: in vivo; settings: Example B.I, outdoors
Description: as §1, §2, §3

HORVS (Hordeum vulgaris) = experiment: Outdoor plot trial, post-emergence treatment, damage to crop plant; format: in vivo; settings: Example B.VI, 100 g of ai/ha
Description: as §1

SMILES: N#Cc1cc(Br)c(O)c(Br)c1 [Compound B5, bromoxynil]
- BRAPL found (BRAPL): 0%
- ZEAMX found (ZEAMX (Zea mays)): 0%

SMILES: CP(=O)(O)CCC(N)C(=O)O (stereo not shown) [Compound B2, glufosinate]
- CHEAL found ([1]; Example B.IV, 500 g of ai/ha): 60%
- PHBPU found ([2]; Example B.III, 500 g of ai/ha): 43%

SMILES: CS(=O)(=O)c1ccc(C(=O)C2C(=O)CCCC2=O)c(Cl)c1COCC(F)(F)F [Compound A4]
- POROL found ([3]; Example B.VIII, 25 g of ai/ha): 5%
- TRZDU found (TRZDU (Triticum davam)): 5%

SMILES: Cc1cc(C(=O)C2C(=O)CCCC2=O)c(C)c2c1S(=O)(=O)CCC2Oc1ncccn1 (stereo not shown) [Compound A2]
- CHEAL found ([1]; Example B.IV, 100 g of ai/ha): 34%
- PHBPU found ([2]; Example B.II, 50 g of ai/ha): 65%
- PHBPU found ([2]; Example B.III, 100 g of ai/ha): 45%
- POROL found ([3]; Example B.V, 100 g of ai/ha): 0%

SMILES: CS(=O)(=O)c1ccc(C(=O)C2C(=O)CCCC2=O)c(Cl)c1C1=NOCC1 [Compound A1]
- KCHSC found (KCHSC (Kochia scoparia); 25 g of ai/ha): 28%

SMILES: COc1cc(OC)nc(NC(=O)NS(=O)(=O)c2ccc(NC=O)cc2C(=O)N(C)C)n1 [Compound B1]
- KCHSC found (KCHSC (Kochia scoparia); 30 g of ai/ha): 30%
- KCHSC found (KCHSC (Kochia scoparia); 60 g of ai/ha): 33%
- PHBPU found ([2]; Example B.II, 30 g of ai/ha): 20%
- POROL found ([3]; Example B.V, 30 g of ai/ha): 43%

SMILES: CC(C)(F)c1nc(N)nc(NC(CCc2ccccc2)C2CCC2)n1 (stereo not shown) [Compound B3]
- CHEAL found ([1]; Example B.VI, 100 g of ai/ha): 30%
- HORVS found (HORVS (Hordeum vulgaris)): 0%

SMILES: COC(=O)c1ccc(I)cc1S(=O)(=O)[N-]C(=O)Nc1nc(C)nc(OC)n1.[Na+] [Compound B4]
- POROL found ([3]; Example B.VIII, 2.5 g of ai/ha): 20%
- TRZDU found (TRZDU (Triticum davam)): 15%
